Laboratory results as given in patent publication US5773569A (Affymax Technologies N.V., priority 1995, dated 1998).
Residues, ends and D or L forms follow the SMILES beside them.

What follows are compounds tested against T1, murine receptor (FDC-P1/ER cells) (Mus musculus, UniProt P14753) (assay: cell-based). Conditions: EPO-ED50 (μM), Tables 17-19; amount for half maximal level of EPO dependent proliferation; IA = inactive.
T1 sequence (P14753 25-507): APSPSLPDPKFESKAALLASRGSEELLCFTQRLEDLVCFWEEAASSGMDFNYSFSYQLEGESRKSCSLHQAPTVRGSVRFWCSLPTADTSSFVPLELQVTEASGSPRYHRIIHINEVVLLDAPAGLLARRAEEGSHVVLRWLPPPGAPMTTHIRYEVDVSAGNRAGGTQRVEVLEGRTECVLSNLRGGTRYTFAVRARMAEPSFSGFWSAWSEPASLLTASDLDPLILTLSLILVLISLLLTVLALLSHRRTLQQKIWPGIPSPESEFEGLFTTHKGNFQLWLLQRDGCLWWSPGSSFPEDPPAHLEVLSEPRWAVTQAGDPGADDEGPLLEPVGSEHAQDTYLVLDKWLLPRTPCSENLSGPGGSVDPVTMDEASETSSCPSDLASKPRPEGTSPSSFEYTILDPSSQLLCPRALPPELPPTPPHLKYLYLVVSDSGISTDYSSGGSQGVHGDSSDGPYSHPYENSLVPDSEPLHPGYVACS
Protocol: Sample Preparation: Peptides were resuspended in DMSO as a 1×10^-2 M stock solution and serially diluted in 10-fold increments to generate the following 100×solutions:
Two μl of each stock dilution was added to a cell well as described below in a total volume of 200 μl to generate final concentrations as follows:
Cells are harvested and resuspended in fresh medium without growth factor (erytiropoietin) for 24 hr. Cells are counted and resuspended at a concentration of 800,000 cells/ml. Approximately forty thousand cells (50μ) are added to each well of a 96 well microtiter plate. Peptide is added to each well in triplicate. A standard dose response determination is run with each series of peptides. After a forty-two hr incubation (≈2 doubling), each well is pulsed with 1 μCi/well Thymidine. Cells are incubated an additional six hr at which time cells are harvested and counted to assess thymidine incorporation as an indicator of cell proliferation.

SMILES	EC50
CSCC[C@@H]1NC(=O)[C@H](CCCNC(=N)N)NC(=O)[C@@H](NC(=O)[C@H](CC(C)C)NC(=O)[C@H](Cc2ccc(O)cc2)NC(=O)[C@H](CCC(=O)O)NC(=O)CNC(=O)CN)CSSC[C@@H](C(=O)N[C@H](C(=O)N2CCC[C@H]2C(=O)N[C@H](C(=O)NCC(=O)NCC(N)=O)C(C)C)[C@@H](C)O)NC(=O)[C@H](C(C)C)NC(=O)[C@H](Cc2c[nH]c3ccccc23)NC(=O)[C@H]([C@@H](C)O)NC(=O)[C@H](CCSC)NC(=O)[C@@H]2CCCN2C(=O)CNC1=O [RWJ 61719] (HELM PEPTIDE1{G.G.E.Y.L.C.R.M.G.P.M.T.W.V.C.T.P.V.G.G.[am]}$PEPTIDE1,PEPTIDE1,6:R3-15:R3$$$V2.0)	9 µM
CC(C)[C@@H]1NC(=O)[C@H](Cc2c[nH]c3ccccc23)NC(=O)[C@H]([C@@H](C)O)NC(=O)[C@H](C)NC(=O)[C@@H]2CCCN2C(=O)CNC(=O)[C@H](Cc2ccccc2)NC(=O)[C@H](Cc2c[nH]cn2)NC(=O)[C@@H](NC(=O)[C@H](CO)NC(=O)[C@H](Cc2ccc(O)cc2)NC(=O)[C@@H](NC(=O)CNC(=O)CN)[C@@H](C)O)CSSC[C@@H](C(=O)N[C@@H](CCCCN)C(=O)N2CCC[C@H]2C(=O)N[C@@H](CCC(N)=O)C(=O)NCC(=O)NCC(N)=O)NC1=O [RWJ 61314] (HELM PEPTIDE1{G.G.T.Y.S.C.H.F.G.P.A.T.W.V.C.K.P.Q.G.G.[am]}$PEPTIDE1,PEPTIDE1,6:R3-15:R3$$$V2.0)	0.2 µM
CC(C)C[C@@H]1NC(=O)[C@@H]2CCCN2C(=O)CNC(=O)[C@H](Cc2ccccc2)NC(=O)[C@H](Cc2c[nH]cn2)NC(=O)[C@@H](NC(=O)[C@H](CO)NC(=O)[C@H](Cc2ccc(O)cc2)NC(=O)[C@@H](N)[C@@H](C)O)CSSC[C@@H](C(=O)N[C@@H](CCCCN)C(=O)N2CCC[C@H]2C(=O)N[C@@H](CCC(N)=O)C(N)=O)NC(=O)[C@H](C(C)C)NC(=O)[C@H](Cc2c[nH]c3ccccc23)NC(=O)[C@H]([C@@H](C)O)NC1=O [RWJ 61230] (HELM PEPTIDE1{T.Y.S.C.H.F.G.P.L.T.W.V.C.K.P.Q.[am]}$PEPTIDE1,PEPTIDE1,4:R3-13:R3$$$V2.0)	2 µM
CC(C)C[C@@H]1NC(=O)[C@@H]2CCCN2C(=O)CNC(=O)[C@H](Cc2ccccc2)NC(=O)[C@H](Cc2c[nH]cn2)NC(=O)[C@@H](NC(=O)[C@H](CO)NC(=O)[C@H](Cc2ccc(O)cc2)NC(=O)[C@@H](N)[C@@H](C)O)CSSC[C@@H](C(=O)N[C@@H](CCCCN)C(=O)N2CCC[C@H]2C(=O)N[C@@H](CCC(N)=O)C(=O)NCC(=O)NCC(N)=O)NC(=O)[C@H](C(C)C)NC(=O)[C@H](Cc2c[nH]c3ccccc23)NC(=O)[C@H]([C@@H](C)O)NC1=O [RWJ 61597] (HELM PEPTIDE1{T.Y.S.C.H.F.G.P.L.T.W.V.C.K.P.Q.G.G.[am]}$PEPTIDE1,PEPTIDE1,4:R3-13:R3$$$V2.0)	2 µM
CC(C)C[C@@H]1NC(=O)[C@H](C)NC(=O)CNC(=O)[C@H](Cc2ccccc2)NC(=O)[C@H](Cc2c[nH]cn2)NC(=O)[C@@H](NC(=O)[C@H](CO)NC(=O)[C@H](Cc2ccc(O)cc2)NC(=O)[C@@H](NC(=O)CNC(=O)CN)[C@@H](C)O)CSSC[C@@H](C(=O)N[C@@H](CCCCN)C(=O)N2CCC[C@H]2C(=O)N[C@@H](CCC(N)=O)C(=O)NCC(=O)NCC(N)=O)NC(=O)[C@H](C(C)C)NC(=O)[C@H](Cc2c[nH]c3ccccc23)NC(=O)[C@H]([C@@H](C)O)NC1=O [RWJ 61277] (HELM PEPTIDE1{G.G.T.Y.S.C.H.F.G.A.L.T.W.V.C.K.P.Q.G.G.[am]}$PEPTIDE1,PEPTIDE1,6:R3-15:R3$$$V2.0)	0.1 µM
CC(C)C[C@@H]1NC(=O)[C@@H]2CCCN2C(=O)CNC(=O)[C@H](Cc2ccccc2)NC(=O)[C@H](Cc2c[nH]cn2)NC(=O)[C@@H](NC(=O)[C@@H](N)Cc2ccc(O)cc2)CSSC[C@@H](C(N)=O)NC(=O)[C@H](C(C)C)NC(=O)[C@H](Cc2c[nH]c3ccccc23)NC(=O)[C@H]([C@@H](C)O)NC1=O [RWJ 61513] (HELM PEPTIDE1{Y.C.H.F.G.P.L.T.W.V.C.[am]}$PEPTIDE1,PEPTIDE1,2:R3-11:R3$$$V2.0)	2 µM
